Reference: US20070155693A1, “Inhibitor of cancer bone metastasis” (ORIENT CANCER THERAPY CO., LTD., priority 2004, published 2007)

Key:
[1] = test system: bone metastasis pain; assay: Clinical cases: pain from bone metastasis; type: in vivo, human; settings: for generalized bone pain: morphine 240 mg/day, Leuplin hormone therapy, Iressa 250 mg/day
Protocol: (§1) A prostate cancer patient having been diagnosed as ischial bone metastasis received the hormone therapy of Casodex and Leuplin. NITC was started on Jun. 11, 200X. […] On Sep. 18, 200X, severe low back pain and left hip joint and hip (ischial bone metastasis) pains were appeared, so morphine (MS Contin 40 mg/day) was used. From Oct. 29, 200X, Iressa 1T (250 mg/day) was started to use. Two months after the administration of Iressa, as the pains in low back, left hip joint and hip were alleviated, the administration of MS Contin decreased to 20 mg/day.
(§2) From Jul. […] From Aug. 17, 200X, Iressa 1T (250 mg/day) was initiated. […] Currently, Iressa is only temporarily and orally administered as a painkiller, when pain appears.

[2] = test system: non-small cell lung cancer and prostate cancer; settings: clinical data; cited from earlier work
[3] = test system: bone metastasis; assay: Clinical cases: bone metastasis marker 1CTP; type: in vivo, human; settings: Example 1, prostate cancer and ischial bone metastasis; Iressa added to NITC
Text: Effects of inhibiting bone metastasis were confirmed by the variation of 1CTP which is a bone metastasis marker. 1CTP has been practically used as a specific marker for bone resorption and there is, for example, 1CTP kit supplied by Orion (Clin. Chem. 39: 635-640, 1993). The kit uses a decalcified human thigh bone, which is degraded and purified in vitro by a purified bacterial collagenase, as an antigen (1CTP), to immunize a rabbit to produce an antibody, and the antigen is labeled with ^125I to make competitive radioimmunoassay (RIA). Its measuring sensitivity is 0.5 ng/ml or less and the measurement is possible to at least 50 ng/ml. Further, the mean value in blood level of 287 cases from 25-year old to 72-year old is 3.00±1.12 ng/ml (average±S.D.). 1CTP in blood has shown abnormal values in various metabolic bone diseases such as bone metastasis and hyperparathyroidism by now, and further has also been recognized to correlate with therapeutic process. The kit to measure 1CTP is a known clinical diagnosis one, and there is a RIA kit, pyridinoline 1CTP “Chugai” manufactured by Chugai Diagnostics Science Co., Ltd. Specifically, it is a radioimmunoassay reagent using ^125I as a label. However, other well known reagents such as enzyme immunoassay reagent using an enzyme labeling and fluorescence immunoassay reagent using a fluorescent substance can of course be applied. […]

[4] = test system: prostate cancer; assay: Clinical cases: prostate cancer markers PSA and PAP; type: in vivo, human; settings: Example 1, prostate cancer and ischial bone metastasis; Iressa added to NITC
Protocol: Abbreviations expressed were based on each general expression way.
as §1, §2

| Compound | generalized bone pain ([1]; Example 2) | CR (complete remission) [2] | pains in low back, left hip joint and hip ([1]; Example 1, two months after the administration of Iressa 250 mg/day) | effect as painkiller compared with morphine ([1]; Example 2) | pains after dose reduction ([1]; Example 2, Iressa decreased to 250 mg/alternate day and 250 mg/three days) | 1CTP (bone metastasis marker) [3] | PSA and PAP (prostate cancer markers) [4] |
| --- | --- | --- | --- | --- | --- | --- | --- |
| CCNC(=O)[C@@H]1CCCN1C(=O)[C@H](CCCNC(=N)N)NC(=O)[C@H](CC(C)C)NC(=O)[C@@H](CC(C)C)NC(=O)[C@H](Cc1ccc(O)cc1)NC(=O)[C@H](CO)NC(=O)[C@H](Cc1c[nH]c2ccccc12)NC(=O)[C@H](Cc1c[nH]cn1)NC(=O)[C@@H]1CCC(=O)N1 [Leuplin] | the pain was not weakened |  |  |  |  |  |  |
| CN1CC[C@]23c4c5ccc(O)c4O[C@H]2[C@@H](O)C=C[C@H]3[C@H]1C5 [morphine] | could not alleviate the pain |  |  |  |  |  |  |
| COc1cc2ncnc(Nc3ccc(F)c(Cl)c3)c2cc1OCCCN1CCOCC1 [Iressa] | alleviated significantly | almost nothing | alleviated | stronger effect than morphine | pains disappeared | the increase of 1CTP also terminated, showing a tendency to decrease | kept decreasing significantly |
